From US20110105623A1 (Biogenic Innovations, LLC, priority 2009, published 2011)
Values joined by “and” are separate entries in the source; they are usually repeats but may differ in a detail not shown here. Equal entries are not always repeated.

Experiments:
Assay type in all cases: cell-based
[1] = tested on: Lactobacillus acidophilus; assay: Recovery from Acidophilus milk fortified with MSM into broth without MSM; conditions: for Lag Recovery of Lactobacillus acidophilus in Milk fortified with MSM Day 28: duplicates
Method: The Acidophilus milk was low fat (Darigold). […] All preparations and plating was conducted at room temperature.
The recovery study was run parallel to the study done on the affects of MSM on growth of Lactobacillus acidophilus in Acidophilus milk fortified with MSM. The recovery growth rate was analyzed on Day 7, Day 14, Day 21 and Day 28. For Table 27, the growth for Day x with no time is calculated from the initial growth study with the dilution factor into the log growth. […] Table 28 takes the value of 2.00 as the starting value.

Staphylococcus aureus = assay: USP <51> AET in cosmetic cream/composition; conditions: for Log Reduction from Initial Microorganism Inoculum: 14, 28 Days
[2] = tested on: White Labs Edinburgh Ale yeast; assay: Fermentation efficiency in production of beer (Scotch Ale); conditions: 0.5% MSM
Text: This positive impact includes such organisms as fungi, yeast, and bacteria. Yeast cultures are involved in the production of beer during the fermentation process to produce ethanol and carbon dioxide. […] Wort is the liquid extracted from the mashing process during the brewing of beer or whisky. Wort contains the sugars that are fermented by the brewing yeast to produce alcohol.
This Procedure is detailed below.
After preparing the mash, the brewing process was started. […] Equipment was cleaned thoroughly with PBW. The wort chiller and filtered air stone were sanitized with brewing sanitizer (San Star Brewing Sanitizer). […] At 30 minutes of boil, a second aliquot (0.5 ounces) of Cascade hops was added. At 40 minutes of boil, third aliquot (0.5 ounces) of Cascade hops was added as well as 2 teaspoons of […] Moss. At 50 minutes of boil, a fourth aliquot (0.5 ounces) of Cascade hops was added. Wort was decanted from the brew kettle to the wort chiller and chilled to 74° F. The wort was then divided into two fermentors (each 21 liters in volume). […] Both fermentors were aerated for 25 minutes with sanitized filtered air stone.

## Methylsulfonylmethane [MSM]
[1]; 5.0% MSM, Day 28-24
  Recovery of Lactobacillus acidophilus in Milk fortified with MSM Day 28, average recovery: 5.56 logs
  Lag Recovery of Lactobacillus acidophilus in Milk fortified with MSM Day 28: 5.64 logs and 5.48 logs
[1]; 5.0% MSM, Day 28-48
  Recovery of Lactobacillus acidophilus in Milk fortified with MSM Day 28, average recovery: 12.87 logs
  Lag Recovery of Lactobacillus acidophilus in Milk fortified with MSM Day 28: 12.58 logs and 13.16 logs
[1]; 5.0% MSM, Day 28-72
  Recovery of Lactobacillus acidophilus in Milk fortified with MSM Day 28, average recovery: 12.48 logs
  Lag Recovery of Lactobacillus acidophilus in Milk fortified with MSM Day 28: 12.49 logs and 12.47 logs
[1]; 5.0% MSM, Hour 0
  Day 7 log recovery growth rate increase from start time of zero: 0.00 logs
  Day 14 log recovery growth rate increase from start time of zero: 0.00 logs
  Day 21 log recovery growth rate increase from start time of zero: 0.00 logs
[1]; 5.0% MSM, Hour 24
  Day 7 log recovery growth rate increase from start time of zero: 4.00 logs
  Day 14 log recovery growth rate increase from start time of zero: 3.56 logs
  Day 21 log recovery growth rate increase from start time of zero: 6.13 logs
[1]; 5.0% MSM, Hour 48
  Day 7 log recovery growth rate increase from start time of zero: 0.47 logs
  Day 14 log recovery growth rate increase from start time of zero: 3.42 logs
  Day 21 log recovery growth rate increase from start time of zero: 3.39 logs
[1]; 5.0% MSM, Hour 72
  Day 7 log recovery growth rate increase from start time of zero: −0.19 logs
  Day 14 log recovery growth rate increase from start time of zero: −0.59 logs
  Day 21 log recovery growth rate increase from start time of zero: 0.08 logs
[1]; 5.0% MSM, Time 0
  Day 28 log recovery growth rate increase from start time of zero: 0.00 logs
[1]; 5.0% MSM, Time 24
  Day 28 log recovery growth rate increase from start time of zero: 5.04 logs
[1]; 5.0% MSM, Time 48
  Day 28 log recovery growth rate increase from start time of zero: 7.31 logs
[1]; 5.0% MSM, Time 72
  Day 28 log recovery growth rate increase from start time of zero: −0.39 logs
[1]; […] MSM, Day 7
  Recovery of Lactobacillus acidophilus in Milk fortified with MSM Day 7, initial start data: 8.50 logs
[1]; […] MSM, Day 7-24
  Recovery of Lactobacillus acidophilus in Milk fortified with MSM Day 7, average recovery: 13.16 logs
[1]; […] MSM, Day 7-48
  Recovery of Lactobacillus acidophilus in Milk fortified with MSM Day 7, average recovery: 12.36 logs
[1]; […] MSM, Day 7-72
  Recovery of Lactobacillus acidophilus in Milk fortified with MSM Day 7, average recovery: 12.60 logs
[1]; […] MSM, Day 14-0
  Recovery of Lactobacillus acidophilus in Milk fortified with MSM Day 14, initial start data: 5.33 logs
[1]; […] MSM, Day 14-24
  Recovery of Lactobacillus acidophilus in Milk fortified with MSM Day 14, average recovery: 9.87 logs
[1]; […] MSM, Day 14-48
  Recovery of Lactobacillus acidophilus in Milk fortified with MSM Day 14, average recovery: 12.32 logs
[1]; […] MSM, Day 14-72
  Recovery of Lactobacillus acidophilus in Milk fortified with MSM Day 14, average recovery: 12.57 logs
[1]; […] MSM, Day 21
  Recovery of Lactobacillus acidophilus in Milk fortified with MSM Day 21, initial start data: 3.47 logs
[1]; […] MSM, Day 21-24
  Recovery of Lactobacillus acidophilus in Milk fortified with MSM Day 21, average recovery: 10.79 logs
[1]; […] MSM, Day 21-48
  Recovery of Lactobacillus acidophilus in Milk fortified with MSM Day 21, average recovery: 12.78 logs
[1]; […] MSM, Day 21-72
  Recovery of Lactobacillus acidophilus in Milk fortified with MSM Day 21, average recovery: 13.10 logs
[1]; […] MSM, Day 28
  Recovery of Lactobacillus acidophilus in Milk fortified with MSM Day 28, initial start data: 1.33 logs
[1]; […] MSM, Day 28-24
  Recovery of Lactobacillus acidophilus in Milk fortified with MSM Day 28, average recovery: 6.37 logs
  Lag Recovery of Lactobacillus acidophilus in Milk fortified with MSM Day 28: 6.37 logs
[1]; […] MSM, Day 28-48
  Recovery of Lactobacillus acidophilus in Milk fortified with MSM Day 28, average recovery: 12.57 logs
[1]; […] MSM, Day 28-72
  Recovery of Lactobacillus acidophilus in Milk fortified with MSM Day 28, average recovery: 12.66 logs
[1]; […] MSM, Hour 0
  Day 7 log recovery growth rate increase from start time of zero: 0.00 logs
  Day 14 log recovery growth rate increase from start time of zero: 0.00 logs
  Day 21 log recovery growth rate increase from start time of zero: 0.00 logs
[1]; […] MSM, Hour 24
  Day 7 log recovery growth rate increase from start time of zero: 4.66 logs
  Day 14 log recovery growth rate increase from start time of zero: 4.54 logs
  Day 21 log recovery growth rate increase from start time of zero: 7.32 logs
[1]; […] MSM, Hour 48
  Day 7 log recovery growth rate increase from start time of zero: −0.8 logs
  Day 14 log recovery growth rate increase from start time of zero: 2.45 logs
  Day 21 log recovery growth rate increase from start time of zero: 2.00 logs
[1]; […] MSM, Hour 72
  Day 7 log recovery growth rate increase from start time of zero: 0.25 logs
  Day 14 log recovery growth rate increase from start time of zero: 0.26 logs
  Day 21 log recovery growth rate increase from start time of zero: 0.32 logs
[1]; […] MSM, Time 0
  Day 28 log recovery growth rate increase from start time of zero: 0.00 logs
[1]; […] MSM, Time 24
  Day 28 log recovery growth rate increase from start time of zero: 5.04 logs
[1]; […] MSM, Time 48
  Day 28 log recovery growth rate increase from start time of zero: 6.20 logs
[1]; […] MSM, Time 72
  Day 28 log recovery growth rate increase from start time of zero: 0.09 logs
Staphylococcus aureus; 10% MSM in cosmetic cream without preservative, 48 hrs-28 days
  AET microorganism count: <10
Staphylococcus aureus; 10% MSM in preservative-free jojoba cream
  Log Reduction from Initial Microorganism Inoculum: 5.6 log
Staphylococcus aureus; 10% MSM, Composition #1
  Log Reduction from Initial Microorganism Inoculum: 5.7 log
Staphylococcus aureus; 10% MSM, Composition #2
  Log Reduction from Initial Microorganism Inoculum: 5.7 log
[2]
  fermentor activity sooner than control: 58%
  sooner time of completion: 17-25%
  starter activity sooner than control: 80%
  time to activity, fermentor: 3.5 h
  time to maximum fermentation: 5 days
